Laboratory results published in patent US20220274947A1, “NOVEL HETEROARYL-TRIAZOLE COMPOUNDS AS PESTICIDES” (Bayer Aktiengesellschaft, priority 2019, published 2022).

Assays:
Format in all cases: in vivo
Rhipicephalus microplus [1] = experiment: Rhipicephalus (Boophilus) microplus injection test (BOOPMI Inj); conditions: 168 h, injection into adult engorged female ticks, egg deposition after 7 days, read-out: activity (efficacy: 100% means all eggs are infertile); for pest or weed control at 0.004 mg: application rate 4 μg/tick; for pest or weed control at 0.02 mg: application rate 20 μg/tick
Outline: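 Five engorged adult female R. microplus ticks injected into the abdomen with 1 μL of compound diluted in DMSO, then kept in a climate chamber. Fertile egg deposition checked after 7 days; eggs without visible fertility held until hatching at about 42 days. Efficacy: 100% = all eggs infertile, 0% = all fertile.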

Rhipicephalus microplus [2] = experiment: Rhipicephalus (Boophilus) microplus in-vitro contact test, larval cattle tick, strain Parkhurst (BOOPMI Cont); conditions: application rate 5 μg/cm^2 (=500 g/ha), tick larvae, after 48 hours, read-out: activity (efficacy: 100% means all larvae are dead or moribund)
Outline: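 Acetone solutions dried onto glass tube walls (900 ppm giving 5 μg/cm^2); 20-50 pyrethroid-resistant Parkhurst larvae added per tube and held 48 h at 27° C., 85% relative humidity. Efficacy scored by negative geotaxis as % dead or moribund larvae.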

Ctenocephalides felis [3] = experiment: Ctenocephalides felis in-vitro contact test, adult cat flea (CTECFE Cont); conditions: application rate 5 μg/cm^2 (=500 g/ha), adult cat fleas, after 48 hours, read-out: activity (efficacy: 100% means all fleas are dead or moribund)
Outline: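 Acetone solutions coated on glass tube inner walls (900 ppm giving 5 μg/cm^2), then 5-10 adult fleas added and held 48 h at room temperature. Fleas unable to escape a 45-50° C. heating plate within 5 min scored dead or moribund; efficacy = % dead/moribund.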

Ctenocephalides felis [4] = experiment: Ctenocephalides felis oral test (CTECFE Oral); conditions: 48 h, read-out: activity (mortality)
Outline: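 About 20 unfed adult cat fleas fed through parafilm on cattle blood containing compound (DMSO concentrate diluted in blood to the desired concentration). Blood held at 37 °C, fleas at room temperature. Mortality (%) scored after 2 days.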

Rhipicephalus sanguineus = Rhipicephalus sanguineus in-vitro contact test, adult brown dog ticks (RHIPSA Cont); conditions: 48 h, after 48 hours, read-out: activity (efficacy: 100% means all ticks are dead or moribund); for pest or weed control at 5 µg/cm2, 500 g/ha: application rate 5 μg/cm^2 (=500 g/ha); for pest or weed control at 1 µg/cm2, 100 g/ha: application rate 1 μg/cm^2 (=100 g/ha)
Outline: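 Compound in acetone (9 mg/mL stock, diluted to test concentration) is coated onto inner walls of glass tubes by rotation for 2 h at 30 rpm. Efficacy is read after 48 h: ticks are tapped down and held on a 45-50° C plate for at most 5 min, and immotile or uncoordinated ones that fail to climb away count as dead or moribund.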

Diabrotica balteata = Diabrotica balteata spray test; conditions: 168 h, wheat seeds, larvae, after 7 days, read-out: activity (efficacy: 100% means all seedlings have grown up like in the untreated, uninfected control); for pest or weed control at 160 µg/disc, 500 g/ha: application rate 500 g/ha (=160 μg/well); for pest or weed control at 32 µg/disc, 100 g/ha: application rate 100 g/ha (=32 μg/well)
Outline: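 Wheat seedlings, germinated 1 day on agar, were sprayed with compound in acetone/DMF diluted in water containing emulsifier, then infested with 10-20 Diabrotica balteata larvae. After 7 days efficacy in % was scored: 100% means seedlings grew like the untreated, uninfected control; 0% means none grew.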

Spodoptera frugiperda = Spodoptera frugiperda spray test; conditions: in Zea mays, 168 h, read-out: activity (mortality)
Outline: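 Maize leaf sections were sprayed with compound formulated in acetone/DMF and diluted in water containing 1000 ppm emulsifier. Dried leaves were infested with fall armyworm larvae, and percent mortality was scored after 7 days.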

[5] = system: Aedes aegypti strain MONHEIM; experiment: Aedes aegypti test (AEDSAE surface treatment & contact assay); conditions: exposure 30 minutes, 24 hours after contact, read-out: efficacy (mortality); for mortality at 4 mg/m2: surface concentration 4 mg/m^2, glazed tile; for mortality at 20 mg/m2: surface concentration 20 mg/m^2, glazed tile
Outline: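 Compound dissolved in acetone (2 mg/ml) with 2000 ppm rapeseed oil methyl ester, pipetted onto glazed tile and dried. Adult mosquitoes exposed on the surface for 30 min; percent mortality scored 24 h after contact.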

[6] = system: Culex quinquefasciatus strain P00; experiment: Culex quinquefasciatus test (CULXFA surface treatment & contact assay); conditions: surface concentration 20 mg/m^2, glazed tile, exposure 30 minutes, 24 hours after contact, read-out: efficacy (mortality)
Description: Culex quinquefasciatus Test (CULXFA Surface Treatment & Contact Assay) Solvent: Aceton+2000 ppm rapeseed oil methyl ester (RME)
(§1) In order to produce a sufficient, active ingredient containing solution it is necessary to solve the test compound in the solvent-mix (acetone at 2 mg/ml/RME 2 000 ppm). This solution is pipetted onto a glazed tile and after evaporation of the acetone, adult mosquitoes of the species Culex quinquefasciatus strain P00 are placed onto the dried surface. The exposure time is 30 minutes. Mortality in percent (%) is determined 24 hours after contact of the insects to the treated surface. 100% mortality means that all tested insects are dead, whereas 0% means that no insect died.

Myzus persicae = Myzus persicae spray test; conditions: in Brassica rapa, foliar, 120 h; for mortality at 500 g/ha: read-out: activity (mortality), application rate 500 g/ha, spray, Chinese cabbage leaf disks, after 5 days
Outline: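 Compound in acetone/DMF solvent diluted in water with 1000 ppm alkylarylpolyglycol ether emulsifier, sprayed onto Chinese cabbage leaf disks infested with all instars of Myzus persicae. Mortality (%) scored after 5 days.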

Nezara viridula = Nezara viridula spray test; conditions: in Hordeum vulgare, 96 h, application rate 500 g/ha, barley plants, larvae, after 4 days
Outline: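 Barley plants infested with N. viridula larvae were sprayed with compound in acetone/DMF diluted with water containing 1000 ppm alkylarylpolyglycol ether emulsifier. Mortality (%) was scored after 4 days; 100% means all bugs killed, 0% none.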

[7] = system: Anopheles funestus strain FUMOZ-R; experiment: Anopheles funestus test (ANPHFU surface treatment & contact assay); conditions: exposure 30 minutes, 24 hours after contact, read-out: efficacy (mortality); for mortality at 4 mg/m2: surface concentration 4 mg/m^2, glazed tile; for mortality at 20 mg/m2: surface concentration 20 mg/m^2, glazed tile
Description: Anopheles funestus Test (ANPHFU Surface Treatment & Contact Assay) Solvent: Aceton+2000 ppm rapeseed oil methyl ester (RME)
as §1, with “2000” for “2 000”, “Anopheles funestus” for “Culex quinquefasciatus”, “FUMOZ-R (Hunt et al., Med. Vet. Entomol. 2005 September; 19(3): 271-275)” for “P00”

[8] = system: Musca domestica strain WHO—N; experiment: Musca domestica test (MUSCDO surface treatment & contact assay); conditions: surface concentration 20 mg/m^2, glazed tile, exposure 30 minutes, 24 hours after contact, read-out: efficacy (mortality)
Outline: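 Compound dissolved in acetone (2 mg/ml) with 2000 ppm rapeseed oil methyl ester and pipetted onto glazed tile; after acetone evaporation, adult flies exposed to dried surface for 30 minutes. Mortality (%) scored 24 hours after contact.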

SMILES | pest or weed control at 0.004 mg (Rhipicephalus microplus [1]) | pest or weed control at 0.02 mg (Rhipicephalus microplus [1]) | pest or weed control at 5 µg/cm2 (Rhipicephalus microplus [2]) | pest or weed control at 5 µg/cm2 (Ctenocephalides felis [3]) | mortality at 100 ppm (Ctenocephalides felis [4]) | pest or weed control at 5 µg/cm2, 500 g/ha (Rhipicephalus sanguineus) | pest or weed control at 160 µg/disc, 500 g/ha (Diabrotica balteata) | mortality at 100 g/ha (Spodoptera frugiperda) | mortality at 500 g/ha (Spodoptera frugiperda) | mortality at 4 mg/m2 [5] | mortality at 20 mg/m2 [5] | mortality at 20 mg/m2 [6] | pest or weed control at 32 µg/disc, 100 g/ha (Diabrotica balteata) | mortality at 100 g/ha (Myzus persicae; read-out: activity (mortality), application rate 100 g/ha, spray, Chinese cabbage leaf disks, after 5 days) | mortality at 500 g/ha (Myzus persicae) | mortality at 500 g/ha (Nezara viridula) | pest or weed control at 1 µg/cm2, 100 g/ha (Rhipicephalus sanguineus) | mortality at 4 mg/m2 [7] | mortality at 20 mg/m2 [7] | mortality at 20 mg/m2 [8]
C[C@H](NC(=O)c1cc(Cl)cc(C(F)(F)F)c1)c1ncnn1-c1cnc(C#N)cn1 [II-1] | 100% | 100% | 90% | 90% | 100% | 80% | 100% | 100% | 100% | 80 to 100% | 80 to 100% | 80 to 100% |  |  |  |  |  |  |  | 
CC(C)C(=O)Nc1ccc(-n2ncnc2[C@H](C)NC(=O)c2cc(Cl)cc(C(F)(F)F)c2)nc1 [II-2, 3-chloro-N-[(1S)-1-{1-[5-(isobutyrylamino)pyridin-2-yl]-1H-1,2,4-triazol-5-yl}ethyl]-5-(trifluoromethyl)benzamide] | 100% | 100% | 100% | 90% | 100% |  | 100% |  |  |  |  | 80 to 100% | 100% | 100% | 90% | 90% |  |  |  | 
C[C@H](NC(=O)c1cccc(C(F)(F)F)n1)c1ncnn1-c1ccc(C#N)cn1 [II-4] |  | 100% |  |  |  | 100% | 100% | 100% | 100% |  | 80 to 100% | 80 to 100% | 80% |  |  |  | 100% | 80 to 100% | 80 to 100% | 80 to 100%
C[C@H](NC(=O)c1cc(Cl)cc(I)c1)c1ncnn1-c1ccc(C#N)cn1 [II-23] | 100% | 100% | 100% | 80% |  |  | 100% | 100% | 100% |  | 80 to 100% |  | 100% |  |  |  |  |  | 80 to 100% | 80 to 100%
CC(C)N(C)C(=O)c1ccc(-n2ncnc2[C@H](C)NC(=O)c2cc(Cl)cc(C(F)(F)F)c2)nc1 [II-26] | 100% | 100% | 100% | 100% |  | 80% |  | 83% | 100% |  | 80 to 100% |  |  |  | 100% |  | 100% |  | 80 to 100% | 
C[C@H](NC(=O)c1cc(Cl)cc(C(F)(F)F)c1)c1ncnn1-c1cc(-n2ccc(C(F)(F)F)n2)ccn1 [II-42] | 80% | 0% | 90% |  |  |  | 100% | 100% | 100% |  |  | 80 to 100% | 100% |  |  |  |  |  | 80 to 100% | 
Cc1nc([C@H](C)NC(=O)c2cccc(C(F)(F)F)n2)n(-c2ccc(C#N)cn2)n1 [II-48] | 100% | 100% | 100% |  | 90% | 100% |  |  |  | 80 to 100% | 80 to 100% |  | 100% |  |  |  | 100% | 80 to 100% | 80 to 100% | 
C[C@H](NC(=O)c1cc(Cl)cc(OC(F)(F)F)c1)c1ncnn1-c1ncc(OC(F)F)cn1 [II- 30] |  |  |  |  |  |  |  |  |  |  |  | 80 to 100% |  |  |  |  |  |  |  | 
